The values below come from the supplement of paper PMC10307832.

Common to all, as to experiment: relative viability (nuclei count vs DMSO), 5 days (fraction); higher = more cells survive
Compound in assay [1]: CC1(C)CNc2cc(NC(=O)c3cccnc3NCc3ccncc3)ccc21 [Motesanib] + COc1cc2c(Oc3ccc(NC(=O)C4(C(=O)Nc5ccc(F)cc5)CC4)cc3F)ccnc2cc1OCCCN1CCOCC1 [Foretinib] (partner 0.25 µM)
In short, it runs like this: (§1)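 Lung cancer cell lines, seeded in 1536-well plates, were treated the following day by pin tool with a single drug or with five library-drug doses (not always all listed) in √10 steps on top of a fixed anchor-drug dose. Cells were fixed and nuclei stained in one step after 5 days, and nuclei were counted. Relative viability is the nuclei count for treated wells divided by that for vehicle wells, reported as medians of duplicate plates.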

Compound in assay [2]: CC1(C)CNc2cc(NC(=O)c3cccnc3NCc3ccncc3)ccc21 [Motesanib] + CS(=O)(=O)N1CCN(Cc2cc3nc(-c4cccc5[nH]ncc45)nc(N4CCOCC4)c3s2)CC1 [Pictilisib] (partner 1 µM)
In short, it runs like this: as §1

Compound in assay [3]: C[C@@]1(C(=O)Nc2ccc(F)nc2)CCCN1c1nc(Nc2cc(C3CC3)n[nH]2)c2cccn2n1 + Cc1cc(Nc2cc(N3CCN(C)CC3)nc(Sc3ccc(NC(=O)C4CC4)cc3)n2)n[nH]1 [Tozasertib] (partner 0.1 µM)
In short, it runs like this:
as §1

Compound in assay [4]: C[C@@]1(C(=O)Nc2ccc(F)nc2)CCCN1c1nc(Nc2cc(C3CC3)n[nH]2)c2cccn2n1 + O=C(c1cc(Cc2n[nH]c(=O)c3ccccc23)ccc1F)N1CCN(C(=O)C2CC2)CC1 [Olaparib] (partner 8 µM)
In outline: as §1

As to LCLC-97TM1, the relative viability in assay [1] (first compound 0.01 µM) is 0.948; in assay [1] (first compound 0.03162 µM), 0.968; in assay [1] (first compound 0.1 µM), 0.976; in assay [1] (first compound 0.3162 µM) it was 0.919; in assay [1] (first compound 1 µM), 0.979; in assay [2] (first compound 0.01 µM), 0.224. The relative viability in assay [2] (first compound 0.03162 µM) is 0.204; in assay [2] (first compound 0.1 µM), 0.15; in assay [2] (first compound 0.3162 µM) it was 0.235; in assay [2] (first compound 1 µM) it was 0.18; in assay [3] (first compound 0.04 µM), 0.122; in assay [3] (first compound 0.1265 µM), 0.103. For the same cell line, the relative viability in assay [3] (first compound 0.4 µM) was determined as 0.0881; in assay [3] (first compound 1.265 µM) it was 0.126; in assay [4] (first compound 0.04 µM), 0.142; in assay [4] (first compound 0.1265 µM), 0.133; in assay [4] (first compound 0.4 µM) it was 0.1; in assay [4] (first compound 1.265 µM), 0.229.
For the cell line EPLC-272H, the relative viability in assay [1] (first compound 0.01 µM) came out at 0.659; in assay [1] (first compound 0.03162 µM) it was 0.744; in assay [1] (first compound 0.3162 µM), 0.663; in assay [1] (first compound 1 µM), 0.799; in assay [2] (first compound 0.01 µM), 0.296; in assay [2] (first compound 0.03162 µM), 0.176. Also, the relative viability in assay [2] (first compound 0.1 µM) came to 0.267; in assay [2] (first compound 0.3162 µM), 0.317; in assay [2] (first compound 1 µM), 0.309; in assay [3] (first compound 0.04 µM), 0.182; in assay [3] (first compound 0.4 µM), 0.178; in assay [3] (first compound 1.265 µM), 0.287. The relative viability in assay [4] (first compound 0.04 µM) was 0.792; in assay [4] (first compound 0.1265 µM), 0.513; in assay [4] (first compound 0.4 µM), 0.489; in assay [4] (first compound 1.265 µM) it was 0.571.
Turning to NCI-H1915, the relative viability is 1.07 in assay [1] (first compound 0.01 µM); 1.06 in assay [1] (first compound 0.03162 µM); 1.09 in assay [1] (first compound 0.1 µM); 1.14 in assay [1] (first compound 0.3162 µM); 1.06 in assay [1] (first compound 1 µM); 0.933 in assay [2] (first compound 0.01 µM). For the same cell line, the relative viability in assay [2] (first compound 0.03162 µM) came to 0.984; in assay [2] (first compound 0.1 µM), 0.657; in assay [2] (first compound 0.3162 µM), 0.994; in assay [2] (first compound 1 µM), 1.06; in assay [3] (first compound 0.04 µM) it was 0.473; in assay [3] (first compound 0.1265 µM) it was 0.418. The relative viability in assay [3] (first compound 0.4 µM) worked out at 0.407; in assay [3] (first compound 1.265 µM), 0.415; in assay [4] (first compound 0.04 µM), 0.266; in assay [4] (first compound 0.1265 µM), 0.257; in assay [4] (first compound 0.4 µM), 0.242; in assay [4] (first compound 1.265 µM), 0.257.
Take NCI-H2405: the relative viability amounted to 1.01 in assay [1] (first compound 0.03162 µM); 1.06 in assay [1] (first compound 0.1 µM); 1.07 in assay [1] (first compound 0.3162 µM); 1.08 in assay [1] (first compound 1 µM); 0.393 in assay [2] (first compound 0.03162 µM); 0.433 in assay [2] (first compound 0.1 µM). The relative viability in assay [2] (first compound 0.3162 µM) came to 0.425; in assay [2] (first compound 1 µM) it was 0.434; in assay [3] (first compound 0.04 µM), 0.659; in assay [3] (first compound 0.1265 µM), 0.65; in assay [3] (first compound 0.4 µM) it was 0.5; in assay [3] (first compound 1.265 µM), 0.409. Also, the relative viability in assay [4] (first compound 0.04 µM) came out at 0.808; in assay [4] (first compound 0.1265 µM), 0.611; in assay [4] (first compound 0.4 µM), 0.598; in assay [4] (first compound 1.265 µM), 0.511.
NCI-H322M: the relative viability in assay [1] (first compound 0.01 µM) worked out at 1.09; in assay [1] (first compound 0.03162 µM) it was 0.998; in assay [1] (first compound 0.1 µM), 0.979; in assay [1] (first compound 0.3162 µM), 0.946; in assay [1] (first compound 1 µM) it was 1.06; in assay [2] (first compound 0.01 µM), 0.52. Moreover, the relative viability is 0.544 in assay [2] (first compound 0.03162 µM); 0.511 in assay [2] (first compound 0.1 µM); 0.439 in assay [2] (first compound 0.3162 µM); 0.538 in assay [2] (first compound 1 µM); 0.464 in assay [3] (first compound 0.04 µM); 0.347 in assay [3] (first compound 0.1265 µM). In addition, the relative viability in assay [3] (first compound 0.4 µM) stood at 0.361; in assay [3] (first compound 1.265 µM), 0.391; in assay [4] (first compound 0.04 µM), 0.473; in assay [4] (first compound 0.1265 µM), 0.552; in assay [4] (first compound 0.4 µM) it was 0.596; in assay [4] (first compound 1.265 µM), 0.664.
